Experimental findings from US20230219969A1 (priority 2020, published 2023) are described below.

The test system of experiment [1] is 5HT2A. It counts as cell-based. To be noted: result in words.
The test system of the next experiment is mice. The experiment can be described thus: Head-twitch response (HTR) in mice. In kind it is in vivo. The settings on record: hallucinogenic potential.
Experiment [2] has as its system 5HT2A. The settings on record: result in words.

Turning to `COc1ccc2c(CCN(C)C)c[nH]c2c1` [Example 6-MeO-DMT], the “activation of 5HT2A sensor assay in agonist mode” value in the experiment on 5HT2A [1] is given as “do not activate the 5HT2A sensor assay in agonist mode”. Moreover, the “head-twitch response (HTR)” value with mice is recorded as “does not produce a HTR”. Moreover, in the experiment with 5HT2A [2], the “competition with 5-HT in 5HT2A sensor assay in antagonist mode” value is reported as “compete off 5-HT”.
